ChEMBL document CHEMBL1201862, “PubChem BioAssay data set” (2004)
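How tested: cells in 96-well plates exposed to compound for 48 hours at five concentrations. GI50 is the concentration that inhibits growth by half.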 Calls of active or inactive are those of the source. Cut-off read from the data, not from the text of the source: active = GI50 up to about 1.1 µM and inactive = higher. Where a SMILES comes first, the peptide text is derived from it. [ ]: non-standard residue; d: D form. The star is where a group is joined. Phe(4-NO2) = N[CH](Cc1ccc([N+](=O)[O-])cc1)C(=O)O; Boc = CC(C)(C)OC(=O)*

Columns and labels:
Experiment in all cases: inhibition of tumour cell growth, NCI panel, 48 h
SW-620 = tested on: SW-620
ACHN = tested on: ACHN
SF-268 = tested on: SF-268
786-0 = tested on: 786-0
OVCAR-4 = tested on: OVCAR-4
A498 = tested on: A498
HOP-92 = tested on: HOP-92
M14 = tested on: M14
EKVX = tested on: EKVX
COLO 205 = tested on: COLO 205
HL-60 = tested on: HL-60
RXF 393 = tested on: RXF 393
A549 = tested on: A549
NCI-H226 = tested on: NCI-H226
DU-145 = tested on: DU-145
T47D = tested on: T47D
MDA-MB-231 = tested on: MDA-MB-231
SNB-75 = tested on: SNB-75
Hs-578T = tested on: Hs-578T

Measured: GI50

O=C1O[C@H](c2ccccc2)[C@@H]2CC3(CCN12)OCCO3
inactive: SW-620 > 100 µM | ACHN > 100 µM | SF-268 > 100 µM | 786-0 > 100 µM | OVCAR-4 > 100 µM | A498 > 100 µM | HOP-92 69.2 µM | M14 > 100 µM | EKVX > 100 µM | COLO 205 > 100 µM | HL-60 > 100 µM | RXF 393 > 100 µM | A549 > 100 µM | NCI-H226 > 100 µM

C=C(CCC/C(C)=C/C=C/[C@@H](C)CCCc1ccoc1)C[C@@H]1OC(=O)[C@H](C)[C@@H]1O
inactive: SW-620 11.4 µM | DU-145 10.6 µM | ACHN 7.59 µM | SF-268 9.31 µM | 786-0 10.8 µM | OVCAR-4 10.2 µM | T47D 8.36 µM | A498 7.26 µM | MDA-MB-231 7.48 µM | HOP-92 10.6 µM | M14 9.33 µM | EKVX 9.2 µM | COLO 205 8.43 µM | SNB-75 9.77 µM | RXF 393 10.3 µM | A549 7.29 µM | NCI-H226 6.43 µM

c1ccc2sc(C3(N4CCCCC4)CCCC3)cc2c1
inactive: SW-620 8.02 µM | DU-145 11.3 µM | ACHN 8.65 µM | SF-268 11.4 µM | 786-0 9.93 µM | OVCAR-4 9.02 µM | A498 12.7 µM | HOP-92 11.2 µM | M14 15.1 µM | EKVX 7.14 µM | COLO 205 5.53 µM | SNB-75 15.9 µM | HL-60 4.69 µM | Hs-578T 14.1 µM | RXF 393 14.1 µM | A549 5.43 µM | NCI-H226 1.79 µM

CCCCCCCCOCC(O)COC (stereo not drawn)
inactive: SW-620 > 100 µM | ACHN > 100 µM | SF-268 > 100 µM | 786-0 > 100 µM | OVCAR-4 > 100 µM | A498 > 100 µM | HOP-92 82.6 µM | M14 > 100 µM | COLO 205 > 100 µM | HL-60 > 100 µM | A549 > 100 µM | NCI-H226 > 100 µM

O=c1c2ccccc2[nH]c2c(Cl)cc(Cl)c(NC3CCCCC3)c12
inactive: SW-620 22.6 µM | ACHN 15.6 µM | 786-0 31.3 µM | OVCAR-4 41.2 µM | T47D 31.1 µM | A498 19.4 µM | MDA-MB-231 29 µM | M14 18.6 µM | EKVX 23 µM | COLO 205 31.8 µM | SNB-75 27.2 µM | HL-60 18.2 µM | A549 29.9 µM | NCI-H226 21.6 µM

CCCCNC(=S)Nc1nc(C(=O)NNC(=S)NCc2ccccc2)cs1
inactive: SW-620 48.2 µM | DU-145 39.6 µM | ACHN 26.6 µM | SF-268 20.6 µM | 786-0 39.4 µM | OVCAR-4 35.3 µM | T47D 13.2 µM | A498 > 100 µM | MDA-MB-231 66.4 µM | M14 38.6 µM | EKVX 42.8 µM | COLO 205 33.9 µM | A549 52.4 µM | NCI-H226 32.9 µM

Cc1c(N2C(=O)C(Cl)C2/C=C/c2ccccc2)c(=O)n(-c2ccccc2)n1C (stereo not drawn)
inactive: SW-620 24.2 µM | DU-145 34.6 µM | ACHN 20.3 µM | SF-268 29.6 µM | 786-0 24.9 µM | OVCAR-4 29.5 µM | T47D 19.8 µM | MDA-MB-231 25.4 µM | HOP-92 14.1 µM | M14 17.2 µM | EKVX 6.41 µM | COLO 205 14.1 µM | SNB-75 34.1 µM | HL-60 20.1 µM | RXF 393 26.9 µM | A549 26.4 µM | NCI-H226 25.1 µM

COc1cc(CC(C)=O)cc(OC)c1
inactive: SW-620 65.6 µM | DU-145 > 100 µM | ACHN 76.7 µM | SF-268 71.1 µM | 786-0 > 100 µM | OVCAR-4 > 100 µM | T47D 53.8 µM | A498 35 µM | MDA-MB-231 36.3 µM | HOP-92 29.9 µM | M14 > 100 µM | EKVX 67.5 µM | COLO 205 > 100 µM | SNB-75 17.9 µM | HL-60 27.3 µM | A549 > 100 µM | NCI-H226 50.9 µM

CCOC(=O)C[C@@]12CCCNC1(C)CCc1ccccc12 (stereo partly drawn)
inactive: SW-620 > 100 µM | ACHN > 100 µM | 786-0 > 100 µM | M14 > 100 µM | EKVX > 100 µM | COLO 205 > 100 µM | HL-60 > 100 µM | A549 > 100 µM | NCI-H226 > 100 µM

C[C@H]1C(OCCOC2O[C@@H]3O[C@@]4(C)CC[C@H]5[C@H](C)CCC([C@H]2C)[C@@]35O4)O[C@@H]2O[C@@]3(C)CC[C@H]4[C@H](C)CCC1[C@@]24O3 (stereo partly drawn)
inactive: SW-620 44.4 µM | DU-145 19.5 µM | ACHN 40.3 µM | SF-268 50.5 µM | 786-0 27 µM | OVCAR-4 80.5 µM | T47D 10.6 µM | A498 46.7 µM | MDA-MB-231 27.2 µM | HOP-92 45.3 µM | M14 32.1 µM | COLO 205 16.7 µM | SNB-75 25.9 µM | HL-60 24.9 µM | A549 39.8 µM | NCI-H226 28.2 µM

COc1cc(C=O)c(-c2cc3c(cc2C=O)OCO3)c(OC)c1OC
inactive: SW-620 94.6 µM | ACHN > 290 µM | SF-268 101 µM | 786-0 84.9 µM | HOP-92 29.6 µM | EKVX 178 µM | COLO 205 92.5 µM | HL-60 94.8 µM | RXF 393 63.5 µM | A549 93.8 µM | NCI-H226 93.1 µM

CCOC(=O)CCC(NC(=O)C(Cc1ccc([N+](=O)[O-])cc1)NC(=O)OC(C)(C)C)C(=O)NC(CCC(=O)OCC)C(=O)OCC (stereo not drawn) (Boc-[Phe(4-NO2)]-Glu(OEt)-Glu(OEt)-OEt; configuration not given here)
inactive: SW-620 17.9 µM | ACHN 17.4 µM | 786-0 16.8 µM | A498 19.5 µM | MDA-MB-231 27 µM | HOP-92 15.8 µM | M14 16.8 µM | EKVX > 10 µM | COLO 205 21.2 µM | SNB-75 15.6 µM | HL-60 14.9 µM | Hs-578T 18.7 µM | RXF 393 16.6 µM | A549 38.5 µM | NCI-H226 16.8 µM

COc1cc(C)c(CC/C(C)=C/Cc2cc(O)ccc2O)c(C)c1C [PANICEIN A HYDROQUINONE]
inactive: SW-620 > 25 µM | ACHN > 25 µM | SF-268 > 25 µM | 786-0 > 25 µM | OVCAR-4 > 25 µM | A498 > 25 µM | HOP-92 > 25 µM | M14 > 25 µM | EKVX > 25 µM | COLO 205 > 25 µM | SNB-75 > 25 µM | HL-60 > 25 µM | RXF 393 > 25 µM | A549 > 25 µM | NCI-H226 > 25 µM
